Test results: ChEMBL document CHEMBL4257455, “Recent development of lipoxygenase inhibitors as anti-inflammatory agents” (Medchemcomm, 2018)
pIC50: −log10 of the molar value. Values belong to the compound of their own block, whether it stands above or below them.

How the values were obtained:
[1] = target: T1, Seed linoleate 13S-lipoxygenase-1 (Glycine max, UniProt P08170); assay: Inhibition of soybean LOX-1 using linoleic acid as substrate preincubated for 120 secs with substrate followed by enzyme addition and measured every 30 secs for 7.5 mins by spectrophotometric analysis
T1 sequence (P08170 whole entry): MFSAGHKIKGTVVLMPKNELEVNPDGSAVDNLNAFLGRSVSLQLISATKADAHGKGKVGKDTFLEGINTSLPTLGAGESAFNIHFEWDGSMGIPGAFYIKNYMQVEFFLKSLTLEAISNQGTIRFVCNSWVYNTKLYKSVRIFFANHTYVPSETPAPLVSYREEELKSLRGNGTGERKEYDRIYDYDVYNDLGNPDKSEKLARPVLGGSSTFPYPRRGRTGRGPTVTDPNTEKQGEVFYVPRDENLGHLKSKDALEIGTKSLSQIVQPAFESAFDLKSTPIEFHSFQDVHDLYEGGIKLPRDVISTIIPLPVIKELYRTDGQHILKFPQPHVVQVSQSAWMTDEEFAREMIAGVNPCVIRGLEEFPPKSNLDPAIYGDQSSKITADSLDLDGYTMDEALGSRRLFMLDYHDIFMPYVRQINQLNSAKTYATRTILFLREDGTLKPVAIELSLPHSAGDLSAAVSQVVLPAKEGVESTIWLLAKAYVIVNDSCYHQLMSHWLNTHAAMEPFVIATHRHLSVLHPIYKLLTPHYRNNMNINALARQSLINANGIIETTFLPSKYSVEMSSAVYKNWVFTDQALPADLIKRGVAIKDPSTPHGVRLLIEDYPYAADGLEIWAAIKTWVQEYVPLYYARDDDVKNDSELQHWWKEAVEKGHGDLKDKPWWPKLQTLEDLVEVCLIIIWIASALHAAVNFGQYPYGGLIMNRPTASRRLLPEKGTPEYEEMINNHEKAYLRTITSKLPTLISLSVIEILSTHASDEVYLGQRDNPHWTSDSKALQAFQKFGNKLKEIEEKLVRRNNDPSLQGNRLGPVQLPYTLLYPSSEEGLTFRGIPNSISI

Mus musculus = assay: Anti-inflammatory activity in mouse assessed as inhibition of xylene induced ear edema at 30 mg/kg relative to control; format: functional; parameters: scale not given: the % may be the effect or the level left
[2] = Inhibition of LOX (unknown origin); parameters: species or system Homo sapiens
[3] = Inhibition of soybean 15-LOX using linoleic acid as substrate preincubated for 15 mins followed by substrate addition and measured up to 6 mins by spectrophotometric analysis; parameters: species or system Glycine max
[4] = Inhibition of soybean 5LOX using linoleic acid as substrate preincubated for 5 mins followed by substrate addition and measured after 20 mins by spectrophotometric analysis; parameters: species or system Glycine max
[5] = target: T2, Polyunsaturated fatty acid 5-lipoxygenase (Homo sapiens, UniProt P09917); assay: Inhibition of human N-terminal His-tagged 5-LOX expressed in Escherichia coli(Rosetta) by rhodamine 123 dye-based fluorescence assay
T2 sequence (P09917 whole entry): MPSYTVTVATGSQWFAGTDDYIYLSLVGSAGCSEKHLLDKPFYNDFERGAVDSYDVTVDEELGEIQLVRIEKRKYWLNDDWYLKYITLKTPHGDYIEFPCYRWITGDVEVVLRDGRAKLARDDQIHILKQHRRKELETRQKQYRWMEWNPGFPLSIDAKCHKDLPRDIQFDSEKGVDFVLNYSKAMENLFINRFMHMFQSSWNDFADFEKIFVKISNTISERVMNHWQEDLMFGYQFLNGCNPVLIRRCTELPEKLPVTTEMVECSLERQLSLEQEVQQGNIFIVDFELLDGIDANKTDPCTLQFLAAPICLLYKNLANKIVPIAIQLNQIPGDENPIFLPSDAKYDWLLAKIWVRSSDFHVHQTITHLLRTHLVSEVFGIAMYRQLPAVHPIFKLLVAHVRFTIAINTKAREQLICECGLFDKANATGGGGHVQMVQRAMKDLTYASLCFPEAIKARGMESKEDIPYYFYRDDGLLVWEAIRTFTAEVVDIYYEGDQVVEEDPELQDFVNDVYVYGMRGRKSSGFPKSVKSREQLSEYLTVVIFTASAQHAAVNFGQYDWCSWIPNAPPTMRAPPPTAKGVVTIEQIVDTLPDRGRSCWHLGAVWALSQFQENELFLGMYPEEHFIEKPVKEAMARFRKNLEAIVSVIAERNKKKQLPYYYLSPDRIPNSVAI

[6] = target: T3, Polyunsaturated fatty acid lipoxygenase ALOX12 (Homo sapiens, UniProt P18054); assay: Inhibition of human N-terminal His-tagged 12-LOX expressed in Escherichia coli(Rosetta) by rhodamine 123 dye-based fluorescence assay
T3 sequence (P18054 whole entry): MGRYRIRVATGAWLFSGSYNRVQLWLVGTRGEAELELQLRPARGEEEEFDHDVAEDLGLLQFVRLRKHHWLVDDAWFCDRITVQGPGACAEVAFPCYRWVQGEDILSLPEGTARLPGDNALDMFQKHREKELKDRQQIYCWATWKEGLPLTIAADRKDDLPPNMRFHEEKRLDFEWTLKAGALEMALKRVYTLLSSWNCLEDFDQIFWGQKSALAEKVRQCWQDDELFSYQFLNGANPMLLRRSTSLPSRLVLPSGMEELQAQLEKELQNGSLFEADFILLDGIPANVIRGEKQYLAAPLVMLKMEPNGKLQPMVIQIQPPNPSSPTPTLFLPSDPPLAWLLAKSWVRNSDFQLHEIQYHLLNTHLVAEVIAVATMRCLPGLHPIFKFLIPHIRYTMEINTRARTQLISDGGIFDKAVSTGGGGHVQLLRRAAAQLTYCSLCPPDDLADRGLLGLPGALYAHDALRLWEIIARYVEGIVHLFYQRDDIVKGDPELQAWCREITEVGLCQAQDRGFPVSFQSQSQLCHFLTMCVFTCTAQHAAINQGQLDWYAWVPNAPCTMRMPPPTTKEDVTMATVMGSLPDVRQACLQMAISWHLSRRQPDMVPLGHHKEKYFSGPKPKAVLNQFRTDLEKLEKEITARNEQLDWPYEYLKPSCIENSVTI

[7] = target: T4, Polyunsaturated fatty acid lipoxygenase ALOX15 (Homo sapiens) (UniProt P16050); assay: Inhibition of 15-LOX (unknown origin) at 12.7 uM relative to control
T4 sequence (whole entry): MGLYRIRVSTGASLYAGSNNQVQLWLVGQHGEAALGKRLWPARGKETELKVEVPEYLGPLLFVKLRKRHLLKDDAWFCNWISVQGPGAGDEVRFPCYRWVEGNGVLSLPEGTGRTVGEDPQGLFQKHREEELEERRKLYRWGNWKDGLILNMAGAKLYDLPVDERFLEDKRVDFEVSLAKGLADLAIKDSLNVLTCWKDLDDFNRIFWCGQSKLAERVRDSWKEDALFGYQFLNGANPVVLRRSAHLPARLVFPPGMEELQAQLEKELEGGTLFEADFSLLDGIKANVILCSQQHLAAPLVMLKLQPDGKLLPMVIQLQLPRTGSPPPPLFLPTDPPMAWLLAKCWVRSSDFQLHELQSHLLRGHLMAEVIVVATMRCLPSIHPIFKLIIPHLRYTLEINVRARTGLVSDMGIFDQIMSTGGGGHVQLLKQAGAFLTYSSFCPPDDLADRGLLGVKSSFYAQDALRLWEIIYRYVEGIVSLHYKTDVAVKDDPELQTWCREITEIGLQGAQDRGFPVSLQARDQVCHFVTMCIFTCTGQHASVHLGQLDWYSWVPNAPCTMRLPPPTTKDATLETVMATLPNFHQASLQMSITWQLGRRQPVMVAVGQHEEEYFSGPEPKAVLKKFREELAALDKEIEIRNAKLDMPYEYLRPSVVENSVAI

[8] = target: T5, Polyunsaturated fatty acid lipoxygenase ALOX15 (Homo sapiens, UniProt P16050); assay: Inhibition of human N-terminal His-tagged 15-LOX expressed in Escherichia coli(Rosetta) by rhodamine 123 dye-based fluorescence assay
T5 sequence (P16050 whole entry): T4 sequence (whole entry)

[9] = target: T2, Polyunsaturated fatty acid 5-lipoxygenase; assay: Inhibition of 5-LOX (unknown origin)
[10] = target: T6, Arachidonate 5-lipoxygenase-activating protein (Homo sapiens, UniProt P20292); assay: Inhibition of FLAP in human leukocytes assessed as decrease in ionophore A23187-induced LT biosynthesis after 10 mins; format: cell-based
T6 sequence (P20292 whole entry): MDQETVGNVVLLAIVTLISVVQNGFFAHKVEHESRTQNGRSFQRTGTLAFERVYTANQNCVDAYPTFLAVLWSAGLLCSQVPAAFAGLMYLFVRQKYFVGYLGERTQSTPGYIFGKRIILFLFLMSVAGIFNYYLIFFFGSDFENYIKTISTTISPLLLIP

[11] = target: T6, Arachidonate 5-lipoxygenase-activating protein; assay: Inhibition of FLAP in human neutrophils assessed as decrease in LT biosynthesis preincubated for 15 mins followed by AA substrate addition by HPLC analysis
[12] = target: T7, Polyunsaturated fatty acid 5-lipoxygenase (Rattus norvegicus, UniProt P12527); assay: Inhibition of rat 5-LOX expressed in Sf21 insect cells preincubated for 4 mins followed by AA substrate addition and measured after 4 mins by FOX assay
T7 sequence (P12527 whole entry): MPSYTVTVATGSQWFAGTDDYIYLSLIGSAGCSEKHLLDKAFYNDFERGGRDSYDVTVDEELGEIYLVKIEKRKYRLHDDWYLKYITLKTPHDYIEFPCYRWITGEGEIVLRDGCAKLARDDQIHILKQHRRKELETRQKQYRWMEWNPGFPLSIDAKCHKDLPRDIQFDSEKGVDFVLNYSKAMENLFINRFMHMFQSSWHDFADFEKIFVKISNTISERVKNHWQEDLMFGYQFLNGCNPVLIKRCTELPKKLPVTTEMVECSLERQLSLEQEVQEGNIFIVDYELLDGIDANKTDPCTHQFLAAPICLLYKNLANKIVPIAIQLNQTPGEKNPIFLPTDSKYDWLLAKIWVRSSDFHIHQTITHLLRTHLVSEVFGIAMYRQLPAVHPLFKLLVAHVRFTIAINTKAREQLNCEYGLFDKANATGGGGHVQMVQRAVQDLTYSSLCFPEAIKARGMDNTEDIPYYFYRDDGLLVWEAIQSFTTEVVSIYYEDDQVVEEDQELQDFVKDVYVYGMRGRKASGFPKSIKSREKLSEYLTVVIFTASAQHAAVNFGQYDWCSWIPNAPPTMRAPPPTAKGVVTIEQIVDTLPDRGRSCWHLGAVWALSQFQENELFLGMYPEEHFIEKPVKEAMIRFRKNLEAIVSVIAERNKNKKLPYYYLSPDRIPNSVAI

- pIC50 [1]: 5.49
SMILES: CC[C@H](C)/C=C(C)/C=C/C1=C(Br)C2=CC(=O)C(C)(O)C(=O)C2=CO1 (stereo not given in full)

- pIC50 [2]: 6.07
SMILES: CS(=O)(=O)c1ccc(-c2nc(SCCN(O)C(N)=O)nn2-c2ccc(Br)cc2)cc1
- Activity (Mus musculus): 54.1%

- pIC50 [3]: 4.99
SMILES: CCCCC(=O)c1c(O)cc(O)c(C/C=C(\C)CCC=C(C)C)c1O

- pIC50 [4]: 5.68
SMILES: COc1ccc2nc(NCC(O)COc3ccc4c(C)cc(=O)oc4c3)sc2c1 (stereo not given)

- pIC50 [5]: 5.78
- pIC50 [6]: 5.89
SMILES: CC(C)/C=C/c1c(O)cc(-c2cc3ccc(O)cc3o2)cc1O

- inhibition [7]: 34.8%
SMILES: C/C(=C\COc1cc2oc(=O)ccc2cc1O)C/C=C/C(C)(C)O

- pIC50 [8]: 5.92
- pIC50 [5]: 5.63
- pIC50 [6]: 6.68
SMILES: CC(C)=CCc1c(O)cc(-c2cc3ccc(O)cc3o2)cc1O [MORACIN C]

- pIC50 [9]: 5.21
SMILES: CS(=O)(=O)c1ccc(-n2nc(-c3ccc(-c4ccccc4)cc3)c3ccccc3c2=O)cc1

SMILES: Cc1ccc(-c2cc(C(F)(F)F)nn2-c2ccc(S(N)(=O)=O)cc2)cc1 [CELECOXIB]
- Activity (Mus musculus): 46.7%

- pIC50 [10]: 6.99
SMILES: CC(C)c1ccc2c(c1)c(SC(C)(C)C)c(CC(C)(C)C(=O)O)n2Cc1ccc(Cl)cc1

- pIC50 [11]: 5.36
SMILES: Cc1noc(-c2ccc(OCc3ccc4ccccc4n3)cc2)c1-c1ccc(Cl)cc1

- pIC50 [2]: 4.75
SMILES: O=C(O)CCCc1c[nH]c2ccccc12

- pIC50 [2]: 4.27
SMILES: O=C(Cc1c[nH]c2ccccc12)NN=C(c1ccccc1)c1ccccc1

- pIC50 [4]: 5.55
SMILES: Cc1cc(=O)oc2cc(OCC(O)CNc3nc4ccc(Cl)cc4s3)ccc12 (stereo not given)

- pIC50 [12]: 6.90
SMILES: Cc1cc(Nc2nc(-c3ccc(Cl)cc3)cs2)cc(C)c1O

- pIC50 [2]: 4.37
SMILES: O=C(O)Cc1c[nH]c2ccccc12 [INDOLE-3-ACETIC ACID]
